Reference: patent US8217063B2, “Lactam-substituted dicarboxylic acids and use thereof” (Bayer Intellectual Property GmbH, priority 2007, dated 2012)

Experiments:
[1] = target: T1, recombinant guanylate cyclase reporter cell line (Rattus norvegicus, UniProt P20595); test: sGC-activating activity in the CHO reporter cell in vitro; format: cell-based
T1 construct: expressed in transfected cells; host or cells: CHO
T1 sequence (P20595 1-619): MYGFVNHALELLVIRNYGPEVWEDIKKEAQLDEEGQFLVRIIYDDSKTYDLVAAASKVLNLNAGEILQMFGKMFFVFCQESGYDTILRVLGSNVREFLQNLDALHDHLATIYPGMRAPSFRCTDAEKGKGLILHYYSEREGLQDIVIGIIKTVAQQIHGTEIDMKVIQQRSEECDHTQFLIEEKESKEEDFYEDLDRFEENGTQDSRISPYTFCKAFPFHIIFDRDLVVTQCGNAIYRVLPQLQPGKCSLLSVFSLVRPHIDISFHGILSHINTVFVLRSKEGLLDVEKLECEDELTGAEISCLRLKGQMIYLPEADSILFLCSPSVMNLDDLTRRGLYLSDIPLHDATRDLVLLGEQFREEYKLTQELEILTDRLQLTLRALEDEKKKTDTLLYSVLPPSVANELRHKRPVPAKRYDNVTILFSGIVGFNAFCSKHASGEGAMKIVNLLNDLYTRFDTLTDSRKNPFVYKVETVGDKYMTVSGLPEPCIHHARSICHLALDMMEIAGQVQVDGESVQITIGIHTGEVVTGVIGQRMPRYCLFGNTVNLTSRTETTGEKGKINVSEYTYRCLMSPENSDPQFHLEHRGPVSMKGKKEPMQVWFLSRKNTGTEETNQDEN
T1 sequence (P19686 1-690 partner): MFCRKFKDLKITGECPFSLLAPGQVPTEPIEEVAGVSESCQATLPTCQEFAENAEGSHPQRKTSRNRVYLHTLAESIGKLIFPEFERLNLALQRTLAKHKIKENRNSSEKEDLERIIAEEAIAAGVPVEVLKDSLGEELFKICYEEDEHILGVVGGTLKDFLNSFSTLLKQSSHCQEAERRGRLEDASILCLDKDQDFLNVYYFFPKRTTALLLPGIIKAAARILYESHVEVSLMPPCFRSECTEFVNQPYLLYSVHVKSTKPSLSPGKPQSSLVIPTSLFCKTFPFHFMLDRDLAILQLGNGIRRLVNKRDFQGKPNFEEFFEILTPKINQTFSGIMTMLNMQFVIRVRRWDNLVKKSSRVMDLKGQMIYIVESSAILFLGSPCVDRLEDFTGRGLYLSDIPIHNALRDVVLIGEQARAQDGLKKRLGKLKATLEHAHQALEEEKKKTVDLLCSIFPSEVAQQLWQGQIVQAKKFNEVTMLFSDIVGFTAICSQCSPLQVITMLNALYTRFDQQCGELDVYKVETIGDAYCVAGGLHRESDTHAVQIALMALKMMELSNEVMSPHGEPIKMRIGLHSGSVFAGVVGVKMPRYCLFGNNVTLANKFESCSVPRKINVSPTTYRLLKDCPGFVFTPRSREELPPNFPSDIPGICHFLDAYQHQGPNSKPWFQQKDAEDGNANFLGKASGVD
Description: B-3. Action at Recombinant Guanylate Cyclase Reporter Cell Lines
The cellular action of the compounds according to the invention is determined using a recombinant guanylate cyclase reporter cell line, as described in F. Wunder et al., Anal. Biochem. 339, 104-112 (2005).

[2] = system: saphenous artery; test: Vasorelaxant effect in vitro (phenylephrine-contracted artery rings); parameters: species or system Rabbits; conditions: Oryctolagus cuniculus; rabbit saphenous artery rings, contraction induced by phenylephrine
Description: B-1. Vasorelaxant Effect In Vitro:
Rabbits are anesthetized and sacrificed by intravenous injection of thiopental sodium (about 50 mg/kg) and exsanguinated. The saphenous artery is removed and divided into rings 3 mm wide. The rings are mounted singly on in each case a pair of triangular hooks open at the end and made of 0.3 mm-thick special wire (Remanium®). Each ring is placed under an initial tension in 5 ml organ baths with Krebs-Henseleit solution which is at 37° C., is gassed with carbogen and has the following composition: NaCl 119 mM; KCl 4.8 mM; CaCl2×2H2O 1 mM; MgSO4×7H2O 1.4 mM; KH2PO4 1.2 mM; NaHCO3 25 mM; glucose 10 mM; bovine serum albumin 0.001%. The force of contraction is detected with Statham UC2 cells, amplified and digitized via A/D converters (DAS-1802 HC, Keithley Instruments, Munich) and recorded in parallel on chart recorders. Contractions are induced by addition of phenylephrine.
After several (generally 4) control cycles, the substance to be investigated is added in each further run in increasing dosage, and the height of the contraction achieved under the influence of the test substance is compared with the height of the contraction reached in the last preceding run. The concentration necessary to reduce the contraction reached in the preceding control by 50% is calculated from this (IC50). The standard application volume is 5 μl. The proportion of DMSO in the bath solution corresponds to 0.1%.

[3] = target: T2, Heme-containing sGC (Rattus norvegicus, UniProt P20595); test: Stimulation of recombinant soluble guanylate cyclase (sGC) in vitro, heme-containing enzyme; format: biochemical; conditions: 0.0 μM Example 3
T2 construct: made in house; host or cells: baculovirus/Sf9
T2 sequence (P20595 1-619): T1 sequence (P20595 1-619)
T2 sequence (P19686 1-690 partner): T1 sequence (P19686 1-690 partner)
Excerpt: B-2. Stimulation of Recombinant Soluble Guanylate Cyclase (sGC) In Vitro:
Hoenicka, E. M. Becker, H. Apeler, T. Sirichoke, H. Schroeder, R. Gerzer and J.-P. Stasch, “Purified soluble guanylyl cyclase expressed in a baculovirus/Sf9 system: Stimulation by YC-1, nitric oxide, and carbon oxide”, J. Mol. Med. 77 (1999), 14-23. The heme-free guanylate cyclase is obtained by adding Tween 20 to the sample buffer (0.5% in the final concentration).
The activation of sGC by a test substance is reported as n-fold stimulation of the basal activity.

Structure (SMILES)	MEC (minimum effective concentration) [1]	IC50 [2]	further results
O=C(O)c1ccc(CCC(/C=C/c2ccccc2OCCCN2CCCC2=O)CCc2ccc(C(=O)O)cc2)cc1 [Example 2, 4-[(4E)-3-[2-(4-Carboxyphenyl)ethyl]-5-{2-[3-(2-oxopyrrolidin-1-yl)propoxy]phenyl}pent-4-en-1-yl]benzoic acid]	3 nM	0.255 µM	–
O=C(O)c1ccc(CCC(/C=C/c2cc(F)ccc2OCCCN2CCCC2=O)Cc2ccc(C(=O)O)cc2)cc1 (single isomer, unassigned) [Example 6, 4-[(4E)-3-(4-Carboxybenzyl)-5-{5-fluoro-2-[3-(2-oxopyrrolidin-1-yl)propoxy]phenyl}pent-4-en-1-yl]benzoic acid]	3 nM	0.135 µM	–
CC1OCCN(CCCCCOc2ccccc2/C=C/C(CCc2ccc(C(=O)O)cc2)Cc2ccc(C(=O)O)cc2)C1=O (stereo not drawn) [Example 9, 4-[(4E)-3-(4-Carboxybenzyl)-5-(2-[5-(2-methyl-3-oxomorpholin-4-yl)pentyl]oxy 1-phenyl)pent-4-en-1-yl]benzoic acid]	1 nM	–	–
CN1CCCN(CCCCCOc2ccccc2/C=C/C(CCc2ccc(C(=O)O)cc2)Cc2ccc(C(=O)O)cc2)C1=O (racemic) [Example 10, 4-[(4E)-3-(4-Carboxybenzyl)-5-(2-{[5-(3-methyl-2-oxotetrahydropyrimidin-1(2H)-yl)pentyl]oxy}-phenyl)pent-4-en-1-yl]benzoic acid]	3 nM	–	–
O=C(O)c1ccc(CCC(/C=C/c2ccccc2OCCCCCN2CCCCC2=O)Cc2ccc(C(=O)O)cc2)cc1 (racemic) [Example 7, 4-[(4E)-3-(4-Carboxybenzyl)-5-(2-{[5-(2-oxopiperidin-1-yl)pentyl]oxy}phenyl)pent-4-en-1-yl]-benzoic acid]	1 nM	–	–
O=C(O)c1ccc(CCC(/C=C/c2ccccc2OCCN2CCOC2=O)Cc2ccc(C(=O)O)cc2)cc1 (racemic) [Example 12, 4-[(4E)-3-(4-Carboxybenzyl)-5-{2-[2-(2-oxo-1,3-oxazolidin-3-yl)ethoxy]phenyl}pent-4-en-1-yl]-benzoic acid]	100 nM	–	–
CCN(CC)[N+]([O-])=NO [DEA/NO, 2-(N,N-diethylamino)diazenolate 2-oxide, reference compound]	–	–	Stimulation (n-fold) of sGC by DEA/NO alone ([3]; 0.1 μM DEA/NO): 18.5 n-fold
O=C(O)c1ccc(CCC(/C=C/c2ccccc2OCCCCCN2CCOC2=O)Cc2ccc(C(=O)O)cc2)cc1 (racemic) [Example 8, 4-[(4E)-3-(4-Carboxybenzyl)-5-(2-{[5-(2-oxo-1,3-oxazolidin-3-yl)pentyl]oxy}phenyl)pent-4-en-1-yl]benzoic acid]	1 nM	–	–
O=c1onc2cnc3ccccc3n12 [ODQ, 1H-1,2,4-oxadiazole-(4,3a)-quinoxalin-1-one, reference compound]	–	–	Stimulation (n-fold) of sGC with ODQ alone ([3]; 10 μM ODQ): 3.9 n-fold
O=C(O)c1ccc(CCC(/C=C/c2ccccc2OCCCCN2CCCC2=O)Cc2ccc(C(=O)O)cc2)cc1 (racemic) [Example 11, 4-[(4E)-3-(4-Carboxybenzyl)-5-{2-[4-(2-oxopyrrolidin-1-yl)butoxy]phenyl}pent-4-en-1-yl]benzoic acid]	<1 nM	–	–
O=C(O)c1ccc(CCC(/C=C/c2cc(F)ccc2OCCCN2CCCC2=O)CCc2ccc(C(=O)O)cc2)cc1 [Example 1, 4-[(4E)-3-[2-(4-Carboxyphenyl)ethyl]-5-{5-fluoro-2-[3-(2-oxopyrrolidin-1-yl)propoxy]phenyl}-pent-4-en-1-yl]benzoic acid]	3 nM	0.39 µM	–
O=C(O)c1ccc(CCC(/C=C/c2ccccc2OCCCN2CCOC2=O)Cc2ccc(C(=O)O)cc2)cc1 (single isomer, unassigned) [Example 5, 4-[(4E)-3-(4-Carboxybenzyl)-5-{2-[3-(2-oxo-1,3-oxazolidin-3-yl)propoxy]phenyl}pent-4-en-1-yl]-benzoic acid]	–	0.058 µM	–
